Read-outs that look alike come from different tables or passages of the source.
Tests used:
[1] = Purification of Epirubicin HCl: solution warmed to 60° C., dimer and aglycone; format: physicochemical; settings: for dimer content / epirubicin aglycone: cooled to 50-60° C.
Protocol: Epirubicin hydrochloride (1550 mg) (containing epirubicin aglycone 0.04% and dimer 0.8%) was dissolved in water (100 ml) and the pH was corrected to 3.2-3.8 with hydrochloric acid at room temperature. The solution was then warmed in about ½ hour to 60° C.-65° C. and then maintained at tis temperature for 1 hour and then the solution was cooled to 50-60° C. At the same time, the pH was corrected to 4.5-5.0 with sodium hydroxide (at this point epirubicin aglycone was about 0,10% and dimer content<0,10%). Then the solution was quickly transferred to a cold container.
Epirubicin hydrochloride (1550 mg) (containing epirubicin aglycone 0.04% and dimer 0.8%) was dissolved in water (100 ml) and the pH corrected to 3.2-3.8 with hydrochloric acid at room temperature (by means of 30 microliters of a 1 M aqueous solution). The solution was quickly warmed (in less than ½ hour) to 60° C.-65° C. and then maintained at this temperature for 45 minutes and then the solution was cooled to 50-60° C. At the same time, the pH was corrected to 4.5-5.0 with AMBERLITE® IRA-67 free base (0,18 ml of resin 1,6M) (at this point epirubicin aglycone was about 0,09% and dimer content<0,10%). Then the solution was quickly filtered and then transferred into a cold container.

[2] = Preparation of stable lyophilized anthracycline glycoside hydrochlorides: aglycone and dimer in the lyophilized product; format: physicochemical
Protocol: (§1) Idarubicin hydrochloride (500 mg) was dissolved in water (50 ml) and acetic acid and ammonium acetate (both 1.5% molar amount with respect to the molar amount of idarubicin hydrochloride) were added. The solution was frozen and lyophilized.
as §1, with “Charcoal was then added (100 g) and the solution was stirred for two hours. After that, the suspension was filtered through 0.4 micron membrane and then the” for “The”
Doxorubicin hydrochloride (500 mg) was dissolved in water (20 ml) and the pH corrected to 3.5 with acetic acid at room temperature. The solution was then warmed to 60° C. for 2 hours and then ammonium acetate (1.5% molar amount with respect to the molar amount of doxorubicin hydrochloride) was added. Then the solution was quickly frozen and lyophilized.
(§2) Epirubicin hydrochloride (1550 mg) was dissolved in water (100 ml) and the pH corrected to 3.2-3.8 with hydrochloric acid at room temperature. The solution was then warmed to 60° C.-65° C. for 1 hours and then the solution was cooled to 50-60° C. At the same time, the pH was corrected to 4.5-5.0 with sodium hydroxide. Then the solution was quickly frozen and lyophilized.
Idarubicin hydrochloride (5.0 g) was dissolved in water (500 ml). Then 58 microlitres of AMBERLITE® IRA-67 (1.6M) acetate (meaning 1.0% molar amount with respect to the molar amount of idarubicin hydrochloride) and 4.5 mg of acetic acid (meaning 0.8% molar amount with respect to the molar amount of idarubicin hydrochloride) were added. The suspension was slurried for two hours, then filtered, frozen and lyophilized.
Doxorubicin hydrochloride (5.0 g) was dissolved in water (200 ml) and the pH corrected to 4.6-4.8 with IN hydrochloric acid at room temperature. Then 80 microlitres of AMBERLITE® IRA-67 (1.6M) acetate (meaning 1.5% molar amount with respect to the molar amount of doxorubicin hydrochloride) was added. The solution was then filtered, frozen and lyophilized.
as §2, with “was” for “was then”, “hour” for “hours”, “AMBERLITE® IRA-67 free base.” for “sodium hydroxide.”, “filtered, frozen,” for “frozen”

[3] = cited from earlier work
[4] = cited from earlier work; remark: listed apart in the source
[5] = Stability tests of Doxorubicin HCl solutions at room temperature (aglycone); format: physicochemical
Protocol: Doxorubicin hydrochloride (500 mg) was dissolved in 0.001 N hydrochloric acid (20 ml) at room temperature. The pH of this solution was 3.25.
Doxorubicin hydrochloride (500 mg) was dissolved in 0.1 N acetic acid (20 ml) at room temperature. The pH of this solution was 2.62. After 1 hour, ammonium acetate (4% molar amount with respect to the molar amount of the doxorubicin hydrochloride) was added to the solution and the solution kept at room temperature. The pH rose from 2.62 to 3.02. The results in table 46 show the stability data of this solution at room temperature.
Doxorubicin hydrochloride (500 mg) was dissolved in 0.05 M formic acid (20 ml) at room temperature. The pH of this solution was 2.52. After 1 hour, ammonium acetate (4% molar amount in respect of the molar amount of doxorubicin hydrochloride) was added and the solution kept at room temperature. The pH rose from 2.52 to 2.71.

[6] = Stability test of stabilized lyophilized Doxorubicin HCl (IRA-67 acetate resin); format: physicochemical
Protocol: Starting product was doxorubicin hydrochloride, 2.5% w/v in water. The pH of this solution was corrected to 4.6-4.8 with IN HCl. Then 1.5% molar amount of AMBERLITE® IRA-67 (1.6 M) acetate with respect to doxorubicin hydrochloride was added. After 2 hr of slurrying, the solution was filtered through a 0.4 micron membrane then it was, frozen and lyophilized.

[7] = Purification of Doxorubicin HCl: solution at pH 3.5 warmed to 60° C., aglycone; format: physicochemical
Protocol: Doxorubicin hydrochloride (500 mg) was dissolved in water (10 ml) at room temperature. A small amount of 0.1 N hydrochloric acid was added to lower the pH from 5.4 to 3.5. […]

[8] = cited from earlier work; remark: listed apart in the source
[9] = Example 36: 1550 mg in water (100 ml), t = 0, pH 3.6, 20° C.
[10] = Example 36: after 1 hour at 60° C.-65° C., pH corrected to 4.5-5.0 with sodium hydroxide
[11] = Example 36: final, pH 4.8 (sodium hydroxide), 10° C.
[12] = Example 37: 1550 mg in water (100 ml), t = 0, pH 3.6, 20° C.
[13] = Example 37: Final, pH 4.7 (AMBERLITE IRA-67 free base), 10° C.
[14] = Example 37: after 45 minutes at 60° C.-65° C., pH corrected to 4.5-5.0 with AMBERLITE IRA-67 free base
[15] = starting Epirubicin hydrochloride (1550 mg) before dissolving
[16] = Example 41: pH 3.2-3.8, 60° C.-65° C. for 1 hour, pH 4.5-5.0 with sodium hydroxide, frozen and lyophilized
[17] = Example 44: pH 3.2-3.8, 60° C.-65° C. for 1 hour, pH 4.5-5.0 with AMBERLITE IRA-67 free base, filtered, frozen, lyophilized

COc1cccc2c1C(=O)c1c(O)c3c(c(O)c1C2=O)C[C@@](O)(C(=O)CO)C[C@@H]3O[C@H]1CC(N)[C@@H](O)C(C)O1.Cl (stereo in doubt) [Epirubicin HCl, epirubicin hydrochloride]
% aglycone [1, 9]: 0.04%
% dimer content [1, 9]: 0.80%
% aglycone ([1]; Example 36: 15 min, 60° C.): 0.06%
% dimer content ([1]; Example 36: 15 min, 60° C.): 0.38%
% aglycone ([1]; Example 36: 30 min, 60° C.): 0.07%
% dimer content ([1]; Example 36: 30 min, 60° C.): 0.18%
% aglycone ([1]; Example 36: 45 min, 60° C.): 0.09%
% dimer content ([1]; Example 36: 45 min, 60° C.): 0.11%
% aglycone ([1]; Example 36: 60 min, 60° C.): 0.11%
% dimer content ([1]; Example 36: 60 min, 60° C.): 0.08%
% aglycone ([1]; Example 36: T = 0, 60° C.): 0.04%
% dimer content ([1]; Example 36: T = 0, 60° C.): 0.74%
dimer content [1, 10]: < 0,10%
epirubicin aglycone [1, 10]: about 0,10%
% aglycone [1, 11]: 0.11%
% dimer content [1, 11]: 0.08%
% aglycone [1, 12]: 0.04%
% dimer content [1, 12]: 0.80%
% aglycone ([1]; Example 37: 10 min, 60° C.): 0.05%
% dimer content ([1]; Example 37: 10 min, 60° C.): 0.38%
% aglycone ([1]; Example 37: 20 min, 60° C.): 0.07%
% dimer content ([1]; Example 37: 20 min, 60° C.): 0.18%
% aglycone ([1]; Example 37: 30 min, 60° C.): 0.09%
% dimer content ([1]; Example 37: 30 min, 60° C.): 0.11%
% aglycone ([1]; Example 37: 40 min, 60° C.): 0.10%
% dimer content ([1]; Example 37: 40 min, 60° C.): 0.08%
% aglycone [1, 13]: 0.10%
% dimer content [1, 13]: 0.08%
% aglycone ([1]; Example 37: T = 0, 60° C.): 0.05%
% dimer content ([1]; Example 37: T = 0, 60° C.): 0.76%
dimer content [1, 14]: < 0,10%
epirubicin aglycone [1, 14]: about 0,09%
dimer contained [1, 15]: 0.8%
epirubicin aglycone contained [1, 15]: 0.04%
aglycone contained in lyophilized product [2, 16]: 0.12%
dimer contained in lyophilized product [2, 16]: 0.1%
aglycone contained in lyophilized product [2, 17]: 0.10%
dimer contained in lyophilized product [2, 17]: 0.10%
pH in a 0.5% w/v solution in water [3]: 4-5.5
pKa in water [4]: 7.7

COc1cccc2c1C(=O)c1c(O)c3c(c(O)c1C2=O)C[C@@](O)(C(=O)CO)C[C@@H]3O[C@H]1C[C@@H](N)[C@H](O)C(C)O1.Cl (stereo partly shown) [Doxorubicin HCl, Doxorubicin hydrochloride]
% aglycone ([5]; 0.05 M formic acid, after addition of NH4OAc (4% molar), pH 2.71, 0.5 hr - 20° C.): 0.13%
% aglycone ([5]; 0.05 M formic acid, after addition of NH4OAc (4% molar), pH 2.71, 1.0 hr - 20° C.): 0.11%
% aglycone ([5]; 0.05 M formic acid, after addition of NH4OAc (4% molar), pH 2.71, 1.5 hr - 20° C.): 0.12%
% aglycone ([5]; 0.05 M formic acid, after addition of NH4OAc (4% molar), pH 2.71, 2.0 hr - 20° C.): 0.10%
% aglycone ([5]; 0.05 M formic acid, after addition of NH4OAc (4% molar), pH 2.71, 4.0 hr - 20° C.): 0.14%
% aglycone in doxorubicin HCl ([5]; 0.1 N acetic acid, after addition of NH4OAc (4% molar), pH 3.02, 0.5 hr - 20° C.): 0.20%
% aglycone in doxorubicin HCl ([5]; 0.1 N acetic acid, after addition of NH4OAc (4% molar), pH 3.02, 1.0 hr - 20° C.): 0.13%
% aglycone in doxorubicin HCl ([5]; 0.1 N acetic acid, after addition of NH4OAc (4% molar), pH 3.02, 1.5 hr - 20° C.): 0.12%
% aglycone in doxorubicin HCl ([5]; 0.1 N acetic acid, after addition of NH4OAc (4% molar), pH 3.02, 2.0 hr - 20° C.): 0.35%
% aglycone in doxorubicin HCl ([5]; 0.1 N acetic acid, after addition of NH4OAc (4% molar), pH 3.02, 3.0 hr - 20° C.): 0.12%
% aglycone in doxorubicin HCl ([5]; 0.1 N acetic acid, after addition of NH4OAc (4% molar), pH 3.02, 6.0 hr - 20° C.): 0.16%
% aglycone ([5]; 500 mg in 0.001 N hydrochloric acid (20 ml), pH 3.25, 20° C., 1.0 hr): 0.24%
% aglycone ([5]; 500 mg in 0.001 N hydrochloric acid (20 ml), pH 3.25, 20° C., 3.0 hr): 0.21%
% aglycone ([5]; 500 mg in 0.001 N hydrochloric acid (20 ml), pH 3.25, 20° C., 5.0 hr): 0.26%
% aglycone ([5]; 500 mg in 0.001 N hydrochloric acid (20 ml), pH 3.25, 20° C., 22.0 hr): 0.25%
% aglycone ([5]; 500 mg in 0.05 M formic acid (20 ml), 1.0 hr - 20° C., pH 2.52, before addition of NH4OAc): 0.20%
% aglycone in doxorubicin HCl ([5]; 500 mg in 0.1 N acetic acid (20 ml), 1.0 hr - 20° C., pH 2.62, before addition of NH4OAc): 0.17%
% aglycone ([6]; lyophilized product obtained (IRA-67 acetate treatment)): 0.09%
% aglycone ([6]; solution after treatment with 1.5% mol of IRA-67 acetate, slurried 2 hr, filtered, loaded into lyophilizer): 0.07%
% aglycone ([6]; starting solid doxorubicin hydrochloride, 2.5% w/v in water, after correcting pH (4.75), before resin treatment): 0.07%
% aglycone ([7]; 500 mg in water (10 ml), pH lowered from 5.4 to 3.5 with hydrochloric acid, 1 hr, 60° C.): 0.11%
% aglycone ([7]; 500 mg in water (10 ml), pH lowered from 5.4 to 3.5 with hydrochloric acid, 2 hr, 60° C.): 0.31%
% aglycone ([7]; pH 3.5 solution after two hours at 60° C., cooled, 1 hr, 20° C.): 0.21%
% aglycone ([7]; pH 3.5 solution after two hours at 60° C., cooled, 3 hr, 20° C.): 0.22%
aglycone contained in lyophilized product ([2]; Example 40: pH 3.5 with acetic acid, 60° C. for 2 hours, ammonium acetate 1.5% molar, frozen and lyophilized): 0.12%
aglycone contained in lyophilized product ([2]; Example 43: pH 4.6-4.8, AMBERLITE IRA-67 acetate 1.5% molar, filtered, frozen and lyophilized): 0.10%

COc1cccc2c1C(=O)c1c(O)c3c(c(O)c1C2=O)C[C@@](O)(C(=O)CO)C[C@@H]3O[C@H]1C[C@@H](N)[C@H](O)C(C)O1 (stereo partly shown) [Doxorubicin]
solubility ([8]; in acetone, benzene, chloroform and ethyl ether): practically insoluble
solubility ([8]; in water, methanol): soluble

COc1cccc2c1C(=O)c1c(O)c3c(c(O)c1C2=O)C[C@@](O)(C(=O)CO)C[C@@H]3O[C@H]1C[C@@H](N)[C@@H](O)C(C)O1 (stereo partly shown) [Epirubicin]
solubility ([8]; in acetone, chloroform, and methylene chloride): practically insoluble
solubility ([8]; in water, methanol and ethyl alcohol, at a temperature of 50° C.): soluble

From patent US20070004653A1, “Stable lyophilized anthracycline glycosides” (priority 2005, published 2007)
